Measurements published in patent US20250154193A1, “STEROID COMPOUND, AND PREPARATION METHOD THEREFOR AND APPLICATION THEREOF” (CHOLESGEN (SHANGHAI) CO., LTD., priority 2022, published 2025).

system: SREBP pathway; assay: SREBP luciferase reporter gene system (SRE-luciferase assay) in Huh-7/SRE-Luc cells; format: cell-based; conditions: Homo sapiens, sterol-deficient medium, compound treatment 16 hours, luciferase/GFP ratio
Procedure: Huh-7/SRE-Luc, a human hepatocellular carcinoma cell line, was grown in a culture medium containing DMEM, 10% fetal bovine serum, 100 units/mL penicillin, 100 µg/mL streptomycin, and 200 μg/mL G418.
The Huh-7/SRE-Luc cell line is a human hepatocellular carcinoma cell line Huh-7 stably expressing LDLR promoter-luciferase and green fluorescent protein (GFP). The LDLR promoter region contains a sterol regulatory element (SRE) that can effectively and sensitively respond to the regulation of the transcription factor SREBP. The GFP signal serves as an internal reference to indicate changes in cell number. Therefore, this cell line can be used to screen for active small molecules that regulate the SREBP signaling pathway. […] Cells were incubated in a sterol-deficient medium (5% lipoprotein-deficient serum, 2 μM Lovastatin, 10 μM mevalonate) and treated with corresponding concentrations of compounds for 16 hours. After compound treatment, the cells were lysed with lysis buffer (E397A, Promega), followed by the addition of luciferase substrate (E1500, Promega). The SRE-driven luciferase activity was measured using a BioTek Synergy HTX microplate reader (including but not limited to this type of instrument). The fluorescence intensity of enhanced green fluorescent protein (EGFP) was also measured using the BioTek microplate reader (including but not limited to this type of instrument) and used as an internal reference. The ratio of SRE-driven luciferase activity to GFP fluorescence intensity was used as an indicator of SREBP pathway activity. The test data of each test compound was analyzed using Prism software to obtain the IC50 parameter of the compound.
The inhibitory effect of the compounds of the present disclosure on the SREBP pathway was tested by the method of bioassay example 2. The concentration gradient of each compound was designed as 0.01, 0.03, 0.1, 0.3, 1.0, 3.0, and […], with DMSO as a vehicle control.

SMILES | IC50 [µM]
C[C@H](CCCC(C)(C)O)[C@H]1CC[C@H]2[C@@H]3CC[C@]4(O)[C@@H](O)[C@@H](O)CC[C@]4(C)[C@H]3CC[C@]12C (single isomer, unassigned) [compound 248, cholest-3β,4,5,25-tetraol] | 0.766
C[C@H](CCC[C@H](O)c1ccccc1F)[C@H]1CC[C@H]2[C@@H]3CC[C@H]4[C@@H](O)[C@@H](O)CC[C@]4(C)[C@H]3CC[C@]12C (single isomer, unassigned) [compound 280, 24-[R-(2-fluorophenyl)(hydroxy)methyl]-5α-cholan-30,40-diol or 24-[S-(2-fluorophenyl)(hydroxy)methyl]-5α-cholan-30,40-diol] | 0.118
COc1ccccc1[C@H](O)CCC[C@@H](C)[C@H]1CC[C@H]2[C@@H]3CC[C@H]4[C@@H](O)[C@@H](O)CC[C@]4(C)[C@H]3CC[C@]12C (single isomer, unassigned) [compound 325, 24-[S-hydroxy(2-methoxyphenyl)methyl]-5α-cholan-3β,4β-diol or 24-[R-hydroxy(2-methoxyphenyl)methyl]-5α-cholan-3β,4β-diol] | 0.09
C[C@H](CCCC(C)(C)O)[C@H]1CC[C@H]2[C@@H]3CC[C@H]4C(=NO)[C@@H](O)CC[C@]4(C)[C@H]3CC[C@]12C (stereo in doubt) [compound 273, [(1R,3aS,3bS,5aR,6E,7S,9aR,9bS,11aR)-7-hydroxy-1-[(2R)-6-hydroxy-6-methylheptan-2-yl]-9a,11a-dimethylhexadecahydro-1H-cyclopenta[1,2-a]phenanthren-6-ylidene]hydroxylamine] | 0.279
C[C@H](CCCC(C)(C)O)[C@H]1CC[C@H]2[C@@H]3CCC4(O)C[C@@H](O)CC[C@]4(C)[C@H]3CC[C@]12C (some centres unmarked) [compound 205, cholest-30,5,25-triol] | 0.817
C[C@H](CCCC(C)(C)O)[C@H]1CC[C@H]2[C@@H]3C[C@@H](O)[C@H]4C[C@@H](O)CC[C@]4(C)[C@H]3CC[C@]12C [compound 206, cholest-3β,6,25-triol] | 0.464
C[C@H](CCCC(C)(C)O)[C@H]1CC[C@H]2[C@@H]3CC(O)C4(O)C[C@@H](O)CC[C@]4(C)[C@H]3CC[C@]12C (stereo partly drawn) [compound 207, cholest-3β,5,6,25-tetraol] | 3.09
COC1C[C@H]2[C@@H]3CC[C@H]([C@H](C)CCCC(C)(C)O)[C@@]3(C)CC[C@@H]2[C@@]2(C)CC[C@H](O)CC12O (stereo partly drawn) [compound 208, 6-methoxycholest-3β,5,25-triol] | 1.93
C[C@H](CCCC(C)(C)O)[C@H]1CC[C@H]2[C@@H]3C(O)C[C@H]4C[C@@H](O)CC[C@]4(C)[C@H]3CC[C@]12C (stereo partly drawn) [compound 210, 5α-cholest-3β,7,25-triol] | 0.837
CCC(O)CCC[C@@H](C)[C@H]1CC[C@H]2C3CC[C@H]4C[C@@H](O)CC[C@]4(C)C3CC[C@]12C (stereo partly drawn) [compound 211, (1R,3aS,5aS,7S,9aS,11aR)-1-[(2R)-6-hydroxyoctan-2-yl]-3a,9a,11a-trimethylhexadecahydro-1H-cyclopenta[1,2-α]phenanthren-7-ol] | 0.395
C[C@H](CCCC(O)C1CC1)[C@H]1CC[C@H]2[C@@H]3CC[C@H]4C[C@@H](O)CC[C@]4(C)[C@H]3CC[C@]12C (stereo partly drawn) [compound 217, 24-[cyclopropyl(hydroxy)methyl]-5α-cholan-3β-ol] | 0.329
C[C@H](CCCC(O)C(F)(F)F)[C@H]1CC[C@H]2[C@@H]3CC[C@H]4C[C@@H](O)CC[C@]4(C)[C@H]3CC[C@]12C (stereo partly drawn) [compound 218, 24-(2,2,2-trifluoro-1-hydroxyethyl)-5α-cholan-3β-ol] | 0.296
C[C@H](CCN1CCc2ccccc2C1=O)[C@H]1CC[C@H]2[C@@H]3CC[C@H]4C[C@@H](O)CC[C@]4(C)[C@H]3CC[C@]12C [compound 224] | > 10
C[C@H](CCCC(C)(C)O)[C@H]1CC[C@H]2[C@@H]3CC(=O)C4(O)C[C@@H](O)CC[C@]4(C)[C@H]3CC[C@]12C (some centres unmarked) [compound 225, 3P,5,25-trihydroxycholest-6-one] | 0.667
C[C@H](CCCC(C)(C)O)[C@H]1CC[C@H]2[C@@H]3CC(O)C4(F)C[C@@H](O)CC[C@]4(C)[C@H]3CC[C@]12C (some centres unmarked) [compound 226] | 46.6
C[C@H](CCCC(C)(C)O)[C@H]1CC[C@H]2[C@@H]3CC(C#N)C4(O)C[C@@H](O)CC[C@]4(C)[C@H]3CC[C@]12C (some centres unmarked) [compound 227] | 1.33
C[C@H](CCCC(C)(C)O)[C@H]1CC[C@H]2[C@@H]3C(O)C[C@H]4[C@@H](O)[C@@H](O)CC[C@]4(C)[C@H]3CC[C@]12C (stereo partly drawn) [compound 231, cholest-3β,4p,7,25-tetraol] | 1.03
C[C@H](CCCC(O)C(F)(F)F)[C@H]1CC[C@H]2[C@@H]3CC[C@H]4[C@@H](O)[C@@H](O)CC[C@]4(C)[C@H]3CC[C@]12C (stereo partly drawn) [compound 232, 24-(2,2,2-trifluoro-1-hydroxyethyl)-5α-cholan-3β,4β-diol] | 0.084
C[C@H](CCCC(O)C1CC1)[C@H]1CC[C@H]2[C@@H]3CC[C@H]4[C@@H](O)[C@@H](O)CC[C@]4(C)[C@H]3CC[C@]12C (stereo partly drawn) [compound 233, 24-[cyclopropyl(hydroxy)methyl]-5α-cholan-3β,4β-diol] | 0.232
C[C@H](CCCC(O)c1ccccc1F)[C@H]1CC[C@H]2[C@@H]3CC[C@H]4[C@@H](O)[C@@H](O)CC[C@]4(C)[C@H]3CC[C@]12C (some centres unmarked) [compound 234] | 0.36
C[C@H](CCCC(C)(C)O)[C@H]1CC[C@H]2[C@@H]3CC(=O)[C@H]4[C@@H](O)[C@@H](O)CC[C@]4(C)[C@H]3CC[C@]12C [compound 235, 25-hydroxy-4β-hydroxy-3β-hydroxy-5α-cholest-6-one] | 10.8
C[C@H](CCCC(C)(C)O)[C@H]1CC[C@@]2(C)[C@@H]3C(O)C[C@H]4C(C)(C)[C@@H](O)CC[C@]4(C)[C@H]3CC[C@]12C (stereo partly drawn) [compound 237, (1R,3aS,5aR,7S,9aR,11aR)-1-[(2R)-6-hydroxy-6-methylheptan-2-yl]-3a,6,6,9a,11a-pentamethylhexadecahydro-1H-cyclopenta[1,2-α]phenanthrene-4,7-diol] | 7.04
C[C@H](CCCC(C)(C)O)[C@H]1CC[C@H]2[C@@H]3C[C@H](O)[C@H]4C[C@@H](O)CC[C@]4(C)[C@H]3CC[C@]12C [compound 240, cholest-30,6a,25-triol] | 0.67
CCC(O)CCC[C@@H](C)[C@H]1CC[C@H]2[C@@H]3CC[C@H]4[C@@H](O)[C@@H](O)CC[C@]4(C)[C@H]3CC[C@]12C (stereo partly drawn) [compound 241, 24-(1-hydroxypropyl)-5α-cholan-3β,4β-diol] | 0.328
C[C@H](CCCC(C)(C)O)[C@H]1CC[C@H]2[C@@H]3C(=O)C[C@H]4[C@@H](O)[C@@H](O)CC[C@]4(C)[C@H]3CC[C@]12C [compound 242, 25-hydroxy-4β-hydroxy-3β-hydroxy-5α-cholest-7-one] | 0.556
C[C@H](CCCC(C)(C)O)[C@H]1CC[C@H]2[C@@H]3CC(O)[C@H]4[C@@H](O)[C@@H](O)CC[C@]4(C)[C@H]3CC[C@]12C (stereo partly drawn) [compound 244, cholest-3β,4p,6,25-tetraol] | 3.76
